Laboratory results from ChEMBL document CHEMBL4052632 (Eur J Med Chem, 2017).
pIC50: −log10 of the molar value. One block for each molecule: values may come before it. Active and inactive are the calls of the source. The calls are words filed in the database; no cut-off is given here.

What was measured:
[1] = system: Glycogen synthase kinase-3 beta (Homo sapiens), P49841 [UNDEFINED MUTATION]; test: Non-competitive inhibition of recombinant N-terminal His6-tagged human GSK3beta H350L mutant expressed in baculovirus infected Sf21 insect cells at 20 to 50 uM in presence of constant levels of ATP and varying GS-2 substrate concentration after 30 mins by double reciprocal plot analysis
Glycogen synthase kinase-3 beta (Homo sapiens), P49841 [UNDEFINED MUTATION], sequence (P49841 whole entry, looked up, stated change not applied): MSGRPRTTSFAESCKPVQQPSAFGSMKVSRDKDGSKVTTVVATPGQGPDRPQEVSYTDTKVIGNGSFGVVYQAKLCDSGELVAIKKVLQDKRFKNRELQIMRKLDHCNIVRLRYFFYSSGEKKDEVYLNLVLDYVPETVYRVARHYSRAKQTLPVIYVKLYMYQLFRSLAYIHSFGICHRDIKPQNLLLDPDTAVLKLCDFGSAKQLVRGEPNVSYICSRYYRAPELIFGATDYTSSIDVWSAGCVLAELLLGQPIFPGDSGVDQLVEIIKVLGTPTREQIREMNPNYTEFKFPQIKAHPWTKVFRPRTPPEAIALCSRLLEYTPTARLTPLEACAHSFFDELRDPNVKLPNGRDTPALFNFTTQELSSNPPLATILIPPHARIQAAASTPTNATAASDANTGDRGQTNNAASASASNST

[2] = target: T1, Glycogen synthase kinase-3 beta (Homo sapiens, UniProt P49841); test: biochemical
T1 sequence (P49841 whole entry): as the sequence (P49841 whole entry, looked up, stated change not applied) above
Description: Inhibition of recombinant N-terminal His6-tagged human GSK3beta H350L mutant expressed in baculovirus infected Sf21 insect cells using polypeptide GS-2 as substrate after 30 mins in presence of ATP by kinase-glo luminescence assay

cells = details: Homo sapiens, OVCA433, 48 h
Description: Antiproliferative activity against human OVCA433 cells measured after 48 hrs by MTT assay

[3] = system: Glycogen synthase kinase-3 beta (Homo sapiens), P49841 [UNDEFINED MUTATION]; test: Non-competitive inhibition of recombinant N-terminal His6-tagged human GSK3beta H350L mutant expressed in baculovirus infected Sf21 insect cells at 20 to 50 uM in presence of varying levels of ATP and constant GS-2 substrate concentration after 30 mins by double reciprocal plot analysis
A2780 = test: Antiproliferative activity against human A2780 cells measured after 48 hrs by MTT assay; assay type: functional, cell-based; details: A2780, 48 h
[4] = target: Receptor tyrosine-protein kinase erbB-4 (Homo sapiens) (UniProt Q15303); test: Inhibition of ErbB4 (unknown origin) using poly (Glu, Tyr) 4:1 as substrate after 1 hr by ELISA relative to control; details: concentration not given here
Receptor tyrosine-protein kinase erbB-4 (Homo sapiens), sequence (Q15303 whole entry): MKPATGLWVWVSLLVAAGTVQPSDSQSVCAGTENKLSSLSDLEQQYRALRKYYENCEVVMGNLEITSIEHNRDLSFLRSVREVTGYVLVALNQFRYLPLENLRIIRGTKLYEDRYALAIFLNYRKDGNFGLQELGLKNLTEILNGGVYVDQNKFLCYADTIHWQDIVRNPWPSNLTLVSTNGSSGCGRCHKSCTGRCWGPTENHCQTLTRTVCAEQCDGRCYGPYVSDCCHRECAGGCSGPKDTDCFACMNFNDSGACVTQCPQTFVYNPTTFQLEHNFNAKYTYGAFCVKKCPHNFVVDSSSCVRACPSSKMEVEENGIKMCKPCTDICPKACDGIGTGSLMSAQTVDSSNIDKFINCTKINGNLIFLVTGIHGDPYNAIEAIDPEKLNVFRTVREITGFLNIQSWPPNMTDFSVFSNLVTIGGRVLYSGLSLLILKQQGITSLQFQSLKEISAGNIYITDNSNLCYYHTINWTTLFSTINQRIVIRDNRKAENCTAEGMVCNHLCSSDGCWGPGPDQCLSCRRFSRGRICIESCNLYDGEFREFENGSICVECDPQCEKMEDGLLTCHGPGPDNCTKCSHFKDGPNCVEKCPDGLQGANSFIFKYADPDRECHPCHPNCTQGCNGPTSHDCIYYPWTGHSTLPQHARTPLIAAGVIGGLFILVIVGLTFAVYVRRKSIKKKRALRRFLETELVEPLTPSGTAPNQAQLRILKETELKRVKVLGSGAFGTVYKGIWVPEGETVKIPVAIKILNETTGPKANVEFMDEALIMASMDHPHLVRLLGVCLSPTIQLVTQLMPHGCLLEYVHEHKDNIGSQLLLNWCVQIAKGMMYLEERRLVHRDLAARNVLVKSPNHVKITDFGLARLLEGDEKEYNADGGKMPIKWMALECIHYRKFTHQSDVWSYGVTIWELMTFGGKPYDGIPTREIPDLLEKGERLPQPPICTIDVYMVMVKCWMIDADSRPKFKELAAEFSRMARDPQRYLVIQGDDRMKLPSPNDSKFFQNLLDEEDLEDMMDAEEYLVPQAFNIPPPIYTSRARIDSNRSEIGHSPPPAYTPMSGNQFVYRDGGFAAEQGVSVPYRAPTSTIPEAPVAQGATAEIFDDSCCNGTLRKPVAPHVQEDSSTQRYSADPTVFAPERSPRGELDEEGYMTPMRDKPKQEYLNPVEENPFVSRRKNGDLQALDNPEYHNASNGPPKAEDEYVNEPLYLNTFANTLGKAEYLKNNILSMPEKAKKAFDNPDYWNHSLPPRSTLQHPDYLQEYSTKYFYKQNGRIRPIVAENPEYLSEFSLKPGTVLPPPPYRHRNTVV

[5] = system: Glycogen synthase kinase-3 beta (Homo sapiens), P49841 [UNDEFINED MUTATION]; test: Non-competitive inhibition of recombinant N-terminal His6-tagged human GSK3beta H350L mutant expressed in baculovirus infected Sf21 insect cells at 6.25 to 12.5 uM in presence of constant levels of ATP and varying GS-2 substrate concentration after 30 mins by double reciprocal plot analysis
[6] = system: Glycogen synthase kinase-3 beta (Homo sapiens), P49841 [UNDEFINED MUTATION]; test: Non-competitive inhibition of recombinant N-terminal His6-tagged human GSK3beta H350L mutant expressed in baculovirus infected Sf21 insect cells at 6.25 to 12.5 uM in presence of varying levels of ATP and constant GS-2 substrate concentration after 30 mins by double reciprocal plot analysis
[7] = target: T1, Glycogen synthase kinase-3 beta
Description: Inhibition of GSK3beta (unknown origin)

Structure (SMILES): CCCCCCCCCCCCCCCC(=O)NC1CCN(C(=O)C2Sc3ccccc3N(CC)C2=O)CC1 (configuration not stated)
inhibition [1]: Active
pIC50 [2]: 4.93
pIC50 (cells): 4.16
inhibition [3]: Active
pIC50 (A2780): 5.46

Structure (SMILES): CCCCCCCCCCCCCCCCC(=O)NC1CCN(C(=O)C2Sc3ccccc3N(CC)C2=O)CC1 (configuration not stated)
pIC50 [2]: 4.33
pIC50 (cells): < 4.00
pIC50 (A2780): 5.33

Structure (SMILES): CCCCCCCCCCCC(=O)N1CCC(NC(=O)C2Sc3ccccc3N(CC)C2=O)CC1 (configuration not stated)
pIC50 [2]: 4.53
pIC50 (cells): 4.57
pIC50 (A2780): 4.78

inhibition [4]: 98.2%
Structure (SMILES): CN(C)C/C=C/C(=O)Nc1cc2c(Nc3ccc(F)c(Cl)c3)ncnc2cc1O[C@H]1CCOC1

Structure (SMILES): CCCCCCCCCCCCCCCC(=O)N1CCN(C(=O)C2Sc3ccccc3N(CC)C2=O)CC1 (configuration not stated)
inhibition [5]: Active
pIC50 [2]: 5.06
pIC50 (cells): 4.81
inhibition [6]: Active
pIC50 (A2780): 4.88

Structure (SMILES): CCCCCCCCCCC(=O)N1CCN(C(=O)C2Sc3ccccc3N(CC)C2=O)CC1 (configuration not stated)
pIC50 [2]: 4.57
pIC50 (cells): 4.64
pIC50 (A2780): 4.66

Structure (SMILES): CCCCCCCCCCCC(=O)NC1CCN(C(=O)C2Sc3ccccc3N(CC)C2=O)CC1 (configuration not stated)
pIC50 [2]: 4.48
pIC50 (cells): 4.55
pIC50 (A2780): 4.89

pIC50 [7]: 8.30
Structure (SMILES): O=C1Cc2cc(Br)ccc2/C1=c1/[nH]c2ccccc2/c1=C\O

Structure (SMILES): CCCCCCCCC(=O)N1CCN(C(=O)C2Sc3ccccc3N(CC)C2=O)CC1 (configuration not stated)
pIC50 [2]: < 4.00
pIC50 (cells): 4.09
pIC50 (A2780): 4.47

Structure (SMILES): CCCCCCCCCCCC(=O)NNC(=O)C1Sc2ccccc2N(CC)C1=O (configuration not stated)
pIC50 [2]: 4.92
pIC50 (cells): < 4.00
pIC50 (A2780): 4.39

Structure (SMILES): CCCCCCCCC(=O)N1CCC(NC(=O)C2Sc3ccccc3N(CC)C2=O)CC1 (configuration not stated)
pIC50 [2]: < 4.00
pIC50 (cells): 4.04
pIC50 (A2780): 4.61

Structure (SMILES): CCCCCCCCCCC(=O)N1CCC(NC(=O)C2Sc3ccccc3N(CC)C2=O)CC1 (configuration not stated)
pIC50 [2]: 4.35
pIC50 (cells): 4.55
pIC50 (A2780): 4.78

Structure (SMILES): CCCCCCCCCCCCCC(=O)N1CCN(C(=O)C2Sc3ccccc3N(CC)C2=O)CC1 (configuration not stated)
pIC50 [2]: 4.72
pIC50 (cells): 4.77
pIC50 (A2780): 4.78

Structure (SMILES): CCCCCCCCC(=O)NC1CCN(C(=O)C2Sc3ccccc3N(CC)C2=O)CC1 (configuration not stated)
pIC50 [2]: < 4.00
pIC50 (cells): < 4.00
pIC50 (A2780): 4.48

Structure (SMILES): CCCCCCCCCCCCCCCC(=O)N1CCC(NC(=O)C2Sc3ccccc3N(CC)C2=O)CC1 (configuration not stated)
pIC50 [2]: 4.73
pIC50 (cells): 4.52
pIC50 (A2780): 4.94

Structure (SMILES): CCCCCCCCCCCCCC(=O)NC1CCN(C(=O)C2Sc3ccccc3N(CC)C2=O)CC1 (configuration not stated)
pIC50 [2]: 4.48
pIC50 (cells): 4.58
pIC50 (A2780): 5.04

Structure (SMILES): CCCCCCCCCCCCNC(=O)C1Sc2ccccc2N(CC)C1=O (configuration not stated)
pIC50 [2]: 4.64
pIC50 (cells): < 4.00
pIC50 (A2780): 4.81

Structure (SMILES): CCCCCCCCCCCCCC(=O)N1CCC(NC(=O)C2Sc3ccccc3N(CC)C2=O)CC1 (configuration not stated)
pIC50 [2]: 4.56
pIC50 (cells): 4.83
pIC50 (A2780): 4.88

Structure (SMILES): CCCCCCCCCC(=O)N1CCC(NC(=O)C2Sc3ccccc3N(CC)C2=O)CC1 (configuration not stated)
pIC50 [2]: 4.13
pIC50 (cells): 4.32
pIC50 (A2780): 4.63

Structure (SMILES): CCCCCCCCCC(=O)N1CCN(C(=O)C2Sc3ccccc3N(CC)C2=O)CC1 (configuration not stated)
pIC50 [2]: 4.29
pIC50 (cells): 4.05
pIC50 (A2780): 4.44

Structure (SMILES): CCN1C(=O)C(C(=O)N2CCC(NC(=O)CCCCCc3ccccc3)CC2)Sc2ccccc21 (configuration not stated)
pIC50 [2]: < 4.00
pIC50 (cells): < 4.00
pIC50 (A2780): 4.44

Structure (SMILES): CCCCCCCCCCC(=O)NC1CCN(C(=O)C2Sc3ccccc3N(CC)C2=O)CC1 (configuration not stated)
pIC50 [2]: 4.34
pIC50 (cells): 4.46
pIC50 (A2780): 4.63

Structure (SMILES): CCCCCCCCCC(=O)NC1CCN(C(=O)C2Sc3ccccc3N(CC)C2=O)CC1 (configuration not stated)
pIC50 [2]: 4.17
pIC50 (cells): 4.11
pIC50 (A2780): 4.57

pIC50 (cells): 4.82
pIC50 (A2780): 4.70
Structure (SMILES): Cn1sc(=O)n(Cc2ccccc2)c1=O

Structure (SMILES): CCCCCCCCCCCCCCC(=O)N1CCC(NC(=O)C2Sc3ccccc3N(CC)C2=O)CC1 (configuration not stated)
pIC50 [2]: 4.75
pIC50 (cells): 4.76
pIC50 (A2780): 5.05

Structure (SMILES): CCCCCCCCCCCC(=O)N1CCN(C(=O)C2Sc3ccccc3N(CC)C2=O)CC1 (configuration not stated)
pIC50 [2]: 4.63
pIC50 (cells): 4.71
pIC50 (A2780): 4.78
